This passage reports IC50 results from patent US11339130B1 (Blade Therapeutics, Inc., priority 2016, dated 2022).

What all share (format): biochemical
One test concerns the target T1, Human Calpain 1/NS1 (Homo sapiens, UniProt P07384).
T1 sequence (P07384 1-714): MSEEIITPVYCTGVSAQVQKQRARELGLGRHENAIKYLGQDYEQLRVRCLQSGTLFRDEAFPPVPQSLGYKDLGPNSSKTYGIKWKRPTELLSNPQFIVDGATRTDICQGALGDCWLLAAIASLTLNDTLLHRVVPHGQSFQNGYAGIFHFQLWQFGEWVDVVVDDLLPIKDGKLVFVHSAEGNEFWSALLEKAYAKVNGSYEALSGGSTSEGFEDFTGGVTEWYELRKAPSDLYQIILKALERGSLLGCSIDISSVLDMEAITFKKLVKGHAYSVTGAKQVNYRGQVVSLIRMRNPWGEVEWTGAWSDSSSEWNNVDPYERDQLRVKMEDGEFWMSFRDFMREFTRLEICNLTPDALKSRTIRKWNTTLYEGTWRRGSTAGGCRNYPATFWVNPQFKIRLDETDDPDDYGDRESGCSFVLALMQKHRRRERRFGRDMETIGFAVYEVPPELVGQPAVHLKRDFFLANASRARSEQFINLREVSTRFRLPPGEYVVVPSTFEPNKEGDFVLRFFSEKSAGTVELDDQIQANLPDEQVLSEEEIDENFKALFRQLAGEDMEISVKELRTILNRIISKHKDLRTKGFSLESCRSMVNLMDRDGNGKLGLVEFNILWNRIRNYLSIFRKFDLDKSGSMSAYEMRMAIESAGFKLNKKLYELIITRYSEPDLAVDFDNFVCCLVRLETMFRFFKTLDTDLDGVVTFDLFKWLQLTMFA
T1 sequence (P04632 1-268 partner): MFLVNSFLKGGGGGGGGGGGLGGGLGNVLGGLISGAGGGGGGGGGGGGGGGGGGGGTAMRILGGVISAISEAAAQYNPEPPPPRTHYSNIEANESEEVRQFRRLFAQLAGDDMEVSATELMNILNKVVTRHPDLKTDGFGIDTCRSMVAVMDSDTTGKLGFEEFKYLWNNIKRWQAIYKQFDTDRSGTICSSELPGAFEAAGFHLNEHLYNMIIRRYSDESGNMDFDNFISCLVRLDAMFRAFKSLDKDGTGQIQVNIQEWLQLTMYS
Kind of test: Calpain inhibition continuous fluorescence (FRET) assay, Human Calpain 1/NS1. To be noted: read-out: Human Calpain 1/NS1 IC50. A digest of the protocol: (§1)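 Buffer 50 mM Tris pH 7.5/100 mM NaCl/1 mM DTT; enzyme + cpd preinc 25C; start w/ FRET substrate + CaCl2; kinetic 490/520 nm, 10 min; slopes 1-5 min; 4-PL IC50.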

A further test concerns the target T2, Human Calpain 2/NS1 (Homo sapiens, UniProt P17655).
T2 sequence (P17655 1-700): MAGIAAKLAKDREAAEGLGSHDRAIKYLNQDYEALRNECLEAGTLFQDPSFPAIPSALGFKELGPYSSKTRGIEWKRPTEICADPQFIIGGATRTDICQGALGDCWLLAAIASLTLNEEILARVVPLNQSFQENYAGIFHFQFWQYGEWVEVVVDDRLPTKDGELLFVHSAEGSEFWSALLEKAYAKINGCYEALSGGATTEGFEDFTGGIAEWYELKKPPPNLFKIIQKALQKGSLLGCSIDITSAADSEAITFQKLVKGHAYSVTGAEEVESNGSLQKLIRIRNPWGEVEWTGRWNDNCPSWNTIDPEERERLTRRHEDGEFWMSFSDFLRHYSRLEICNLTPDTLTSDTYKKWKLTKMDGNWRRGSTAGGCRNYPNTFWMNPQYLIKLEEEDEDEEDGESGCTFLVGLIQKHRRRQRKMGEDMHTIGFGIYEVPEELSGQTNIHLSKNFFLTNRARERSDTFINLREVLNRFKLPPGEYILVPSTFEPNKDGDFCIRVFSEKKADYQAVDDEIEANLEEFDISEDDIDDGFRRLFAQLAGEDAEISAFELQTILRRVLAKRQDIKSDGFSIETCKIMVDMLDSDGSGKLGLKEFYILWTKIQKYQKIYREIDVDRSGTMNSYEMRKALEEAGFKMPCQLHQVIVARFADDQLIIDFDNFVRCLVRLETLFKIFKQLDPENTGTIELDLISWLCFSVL
T2 sequence (P04632 1-268 partner): T1 sequence (P04632 1-268 partner)
As to the kind of experiment: Calpain inhibition continuous fluorescence (FRET) assay, Human Calpain 2/NS1. Conditions: read-out: Human Calpain 2/NS1 IC50. A digest of the protocol:
as §1

The next test concerns the target T3, Human Calpain 9/NS1 (Homo sapiens, UniProt O14815).
T3 sequence (O14815 1-690): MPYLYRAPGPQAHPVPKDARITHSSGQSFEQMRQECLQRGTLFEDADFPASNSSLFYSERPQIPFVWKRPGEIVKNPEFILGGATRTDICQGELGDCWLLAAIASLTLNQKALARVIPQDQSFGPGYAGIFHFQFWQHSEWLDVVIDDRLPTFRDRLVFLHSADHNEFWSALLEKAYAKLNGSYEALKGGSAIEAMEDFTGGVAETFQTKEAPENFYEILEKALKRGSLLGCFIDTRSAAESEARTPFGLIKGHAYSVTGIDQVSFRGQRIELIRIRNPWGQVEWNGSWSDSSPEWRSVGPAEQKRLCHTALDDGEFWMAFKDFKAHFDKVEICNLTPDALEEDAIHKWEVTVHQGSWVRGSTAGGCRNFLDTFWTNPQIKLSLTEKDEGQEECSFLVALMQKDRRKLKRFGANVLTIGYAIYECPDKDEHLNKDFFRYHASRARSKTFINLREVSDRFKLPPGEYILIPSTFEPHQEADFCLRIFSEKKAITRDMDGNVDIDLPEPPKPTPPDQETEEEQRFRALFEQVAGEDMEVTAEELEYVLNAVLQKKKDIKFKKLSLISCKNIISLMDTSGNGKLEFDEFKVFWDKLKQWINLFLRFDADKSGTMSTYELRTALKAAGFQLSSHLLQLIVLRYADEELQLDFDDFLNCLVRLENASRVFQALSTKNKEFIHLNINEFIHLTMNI
T3 sequence (P04632 1-268 partner): T1 sequence (P04632 1-268 partner)
As to the kind of experiment: Calpain inhibition continuous fluorescence (FRET) assay, Human Calpain 9/NS1. To be noted: read-out: Human Calpain 9/NS1 IC50. The method in brief:
as §1

Like-named read-outs stand apart in the source and are kept apart here.

With `NC(=O)C(=O)[C@H](Cc1ccccc1)NC(=O)c1ccsc1-c1ccccc1` [Compound 270, (S)—N-(4-amino-3,4-dioxo-1-phenylbutan-2-yl)-2-phenylthiophene-3-carboxamide], the IC50 on Human Calpain 1/NS1 (Column A), on Human Calpain 2/NS1 (Column B) and on Human Calpain 9/NS1 (Column C) was under 3 µM throughout.

With `N#Cc1cc(C(=O)N[C@@H](Cc2ccccc2)C(=O)C(N)=O)n(-c2ccccc2)n1` [Compound 272, (S)—N-(4-amino-3,4-dioxo-1-phenylbutan-2-yl)-3-cyano-1-phenyl-1H-pyrazole-5-carboxamide], the values for the IC50 on Human Calpain 1/NS1 (Column A), at Human Calpain 2/NS1 (Column B) and on Human Calpain 9/NS1 (Column C) were over 10 µM, 3 to 10 µM and 3 to 10 µM, respectively.

For `N#Cc1cc(C(=O)N[C@@H](Cc2ccccc2)C(=O)C(N)=O)nn1-c1ccccc1` [Compound 273, (S)—N-(4-amino-3,4-dioxo-1-phenylbutan-2-yl)-5-cyano-1-phenyl-1H-pyrazole-3-carboxamide], the IC50 was over 10 µM on Human Calpain 1/NS1 (Column A), under 3 µM on Human Calpain 2/NS1 (Column B) and under 3 µM at Human Calpain 9/NS1 (Column C).

Consider `Cn1nc(Br)c(C(=O)NC(Cc2ccccc2)C(=O)C(N)=O)c1Cl` (stereo not drawn) [Compound 274, N-(4-amino-3,4-dioxo-1-phenylbutan-2-yl)-3-bromo-5-chloro-1-methyl-1H-pyrazole-4-carboxamide], for which the IC50 at Human Calpain 1/NS1 (Column A), at Human Calpain 2/NS1 (Column B) and on Human Calpain 9/NS1 (Column C) was under 3 µM throughout.

In the case of `NC(=O)C(=O)C(Cc1ccccc1)NC(=O)c1c(Cl)cnn1-c1ccccc1` (stereo not drawn) [Compound 280, N-(4-amino-3,4-dioxo-1-phenylbutan-2-yl)-4-chloro-1-phenyl-1H-pyrazole-5-carboxamide], the IC50 at Human Calpain 1/NS1 (Column A), on Human Calpain 2/NS1 (Column B) and on Human Calpain 9/NS1 (Column C) was under 3 µM throughout.

Take `NC(=O)C(=O)C(Cc1ccccc1)NC(=O)c1ccnn1Cc1ccccc1` (stereo not drawn) [Compound 283, N-(4-amino-3,4-dioxo-1-phenylbutan-2-yl)-1-benzyl-1H-pyrazole-5-carboxamide]: the IC50 at Human Calpain 1/NS1 (Column A), at Human Calpain 2/NS1 (Column B) and at Human Calpain 9/NS1 (Column C) was under 3 µM throughout.

As for `NC(=O)C(=O)C(Cc1ccccc1)NC(=O)c1ccn(Cc2ccccc2)n1` (stereo not drawn) [Compound 284, N-(4-amino-3,4-dioxo-1-phenylbutan-2-yl)-1-benzyl-1H-pyrazole-3-carboxamide], the IC50 at Human Calpain 1/NS1 (Column A), at Human Calpain 2/NS1 (Column B) and at Human Calpain 9/NS1 (Column C) was over 10 µM in each case.

`Cc1nc(-c2cccc(C(F)(F)F)n2)c(C(=O)NC(Cc2ccccc2)C(=O)C(N)=O)o1` (stereo not drawn) [Compound 287]: the IC50 is under 3 µM at Human Calpain 1/NS1 (Column A), 3 to 10 µM at Human Calpain 2/NS1 (Column B) and under 3 µM at Human Calpain 9/NS1 (Column C).

As to `Cc1ncn(-c2ccccc2)c1C(=O)N[C@@H](Cc1ccccc1)C(=O)C(N)=O` [Compound 290, (S)—N-(4-amino-3,4-dioxo-1-phenylbutan-2-yl)-4-methyl-1-phenyl-1H-imidazole-5-carboxamide], the IC50 on Human Calpain 1/NS1 (Column A), at Human Calpain 2/NS1 (Column B) and at Human Calpain 9/NS1 (Column C) was under 3 µM throughout.

Turning to `NC(=O)C(=O)[C@H](Cc1ccccc1)NC(=O)c1c(Cl)ncn1-c1ccccc1` [Compound 291, (S)—N-(4-amino-3,4-dioxo-1-phenylbutan-2-yl)-4-chloro-1-phenyl-1H-imidazole-5-carboxamide], the IC50 on Human Calpain 1/NS1 (Column A), on Human Calpain 2/NS1 (Column B) and at Human Calpain 9/NS1 (Column C) was under 3 µM each time.

As for `Cc1cc(C(=O)N[C@@H](Cc2ccccc2)C(=O)C(=O)NC2CC2)n(-c2nc3ccccc3n2C)n1` [Compound 295, (S)—N-(4-(cyclopropylamino)-3,4-dioxo-1-phenylbutan-2-yl)-3-methyl-1-(1-methyl-1H-benzo[d]imidazol-2-yl)-1H-pyrazole-5-carboxamide], the IC50 on Human Calpain 1/NS1 (Column A), at Human Calpain 2/NS1 (Column B) and on Human Calpain 9/NS1 (Column C) was over 10 µM throughout.

As to `COc1ccc2nc(-n3nc(C)cc3C(=O)N[C@@H](Cc3ccccc3)C(=O)C(N)=O)sc2c1` [Compound 297, (S)—N-(4-amino-3,4-dioxo-1-phenylbutan-2-yl)-1-(6-methoxybenzo[d]thiazol-2-yl)-3-methyl-1H-pyrazole-5-carboxamide], the IC50 at Human Calpain 1/NS1 (Column A) was over 10 µM; on Human Calpain 2/NS1 (Column B), 3 to 10 µM; on Human Calpain 9/NS1 (Column C) it was under 3 µM.

Consider `Cc1cc(C(=O)N[C@@H](Cc2ccccc2)C(=O)C(N)=O)n(-c2nc3c(C)cccc3s2)n1` [Compound 298, (S)—N-(4-amino-3,4-dioxo-1-phenylbutan-2-yl)-3-methyl-1-(4-methylbenzo[d]thiazol-2-yl)-1H-pyrazole-5-carboxamide], for which the IC50 at Human Calpain 1/NS1 (Column A), on Human Calpain 2/NS1 (Column B) and on Human Calpain 9/NS1 (Column C) was over 10 µM throughout.

Take `NC(=O)C(=O)[C@H](Cc1ccccc1)NC(=O)c1conc1-c1ccccc1` [Compound 304, (S)—N-(4-amino-3,4-dioxo-1-phenylbutan-2-yl)-3-phenylisoxazole-4-carboxamide]: the IC50 at Human Calpain 1/NS1 (Column A), on Human Calpain 2/NS1 (Column B) and at Human Calpain 9/NS1 (Column C) was under 3 µM in each case.

In the case of `NC(=O)C(=O)[C@H](Cc1ccccc1)NC(=O)c1cc2ccccc2n1-c1ccccc1` [Compound 307, (S)—N-(4-amino-3,4-dioxo-1-phenylbutan-2-yl)-1-phenyl-1H-indole-2-carboxamide], the IC50 on Human Calpain 1/NS1, on Human Calpain 2/NS1 and on Human Calpain 9/NS1 was under 3 µM each time.

In the case of `CCn1ncc(Cl)c1C(=O)N[C@@H](Cc1ccccc1)C(=O)C(N)=O` [Compound 311, (S)—N-(4-amino-3,4-dioxo-1-phenylbutan-2-yl)-4-chloro-1-ethyl-1H-pyrazole-5-carboxamide], the IC50 at Human Calpain 1/NS1, on Human Calpain 2/NS1 and on Human Calpain 9/NS1 was under 3 µM throughout.

In the case of `Cc1nc(C(=O)NC(Cc2ccccc2)C(=O)C(N)=O)c(-c2ccccn2)o1` (stereo not drawn) [Compound 314, N-(4-amino-3,4-dioxo-1-phenylbutan-2-yl)-2-methyl-5-(pyridin-2-yl)oxazole-4-carboxamide], the IC50 at Human Calpain 1/NS1, at Human Calpain 2/NS1 and at Human Calpain 9/NS1 was 3 to 10 µM in each case.
